# Measured values from patent publication US20240041976A1, “COMPOSITION AND USE” (priority 2020, published 2024).
# Read-outs that look alike come from different tables or passages of the source.
# B1: Garvicin KS: three-peptide leaderless bacteriocin (GarA, GarB, GarC; SEQ ID NO:6-8), peptides synthesized (peptide, listed as Lactococcus garvieae)
# chain 1: MGAIIKAGAKIVGKGVLGGGASWLGWNVGEKIWK
# chain 2: MGAIIKAGAKIIGKGLLGGAAGGATYGGLKKIFG
# chain 3: MGAIIKAGAKIVGKGALTGGGVWLAEKLFGGK
# What was measured:
# Type in all cases: cell-based, Staphylococcus aureus
# S. aureus Newman = experiment: Planktonic cell growth inhibition assay (MIC50, liquid culture); details: for MIC50: individual component
# Protocol: (§1) Growth inhibition assays were performed in 96-well microtiter plates as described previously (Chi and Holo, 2018, supra). Briefly, 135 μl of TSB were dispensed in each well of a microtiter plate (according to the number of bacterial strains tested) except in the wells of the first row. The antimicrobials were diluted in TSB to working concentrations in a final volume of 285 μl and dispensed in the wells of the first row. The working concentrations were 100 μg/μl for garvicin KS, 10 μg/μl for micrococcin P1 and 1 mg/ml for penicillin G. From the first row, 150 μl of the antimicrobials were then serially diluted (two-fold dilutions) in a sequential fashion until the last row of the plate. Finally, 15 μl of a fresh O/N culture of each strain were added in the appropriate wells to reach a final volume of 150 μl in each well. The plates were then incubated at 37° C. for 24 h. The growth inhibition was expressed as minimum inhibitory concentration (MIC50), which refers to the minimum concentration of the antimicrobial needed to reduce at least 50% of the microbial growth compared to the untreated control. The MIC50 was assessed by optical density readings at 600 nm (O.D.600).
# (§2) Synergistic interactions between antimicrobials were determined using the fractional inhibition concentration (FIC). The FIC values were calculated as follows: the sum of the FIC =FICa+FICb+FICc, where the FICa means MIC of A in combination/MIC of A alone, FICb means MIC of B in combination/MIC of B, and FICc means MIC of C in combination/MIC of C alone. Effects were considered as synergistic if FIC was ≤0.5 for two components mixture and ≤0.75 for three components mixture.
# S. aureus USA 300 = experiment: as above
# Protocol: as §1, §2
# S. aureus ATTC 10832 = experiment: as above
# Protocol: as §1, §2
# S. aureus ATTC 33591 = experiment: as above
# Protocol: as §1, §2
# S. aureus ATTC 29213 = experiment: as above
# Protocol: as §1, §2
# S.a. 3255 = experiment: as above; details: for MIC50: individual component
# Protocol: as §1, §2
# [1] = tested on: three MRSA strains (ATCC33591-lux, USA-300 and MRSA 43484); experiment: AAMP assay and checkerboard synergy, summary
# Protocol: Briefly, equal amounts of antimicrobial A were applied on microtiter plate 1 in wells A1-H1 and then diluted two-fold to wells 2-12. Similarly, equal amounts of antimicrobial B were applied on microtiter plate 2 in wells A1-A12 and diluted two-fold in wells B-H. Volumes of 50 μl of antimicrobial A from each well of microtiter plate 1 were transferred into microtiter plate 3, except for wells H1-H12. Similarly, the same volumes were transferred from microtiter plate 2 into plate 3, except for wells A1-A8. […] A 50 μl volume of pure broth was added into each well in lines H1-H12 and A1-A8 which were used to estimate MIC values of pure substances (blank).
# (§3) Three-component synergy was assessed by mixing the three components (100 μg of PenG, 50 μg of GarKS and 2.5 μg of MP1) into one well of a microtiter plate, compared with activity of individual antimicrobials on the same plate.
# S. aureus LMG3328 = experiment: AAMP assay (MIC), single components and formulation mixture
# Protocol: (§4) Antimicrobial activity was measured using the AAMP assay (Wiegand et al., 2008, Nat. Protoc., Vol. 3(2), p 163-175).
# as §3, with “plate. The fractional inhibition concentration (FIC) which was used to define synergy was calculated as set forth in Example 1.” for “plate.”
# S. aureus LMG3265 = experiment: as above
# Protocol: as §4
# as §3, with “plate. The fractional inhibition concentration (FIC) which was used to define synergy was calculated as set forth in Example 1.” for “plate.”
# S. aureus LMG3258 = experiment: as above
# Protocol: as §4
# as §3, with “plate. The fractional inhibition concentration (FIC) which was used to define synergy was calculated as set forth in Example 1.” for “plate.”
# S. aureus LMG3271 = experiment: as above
# Protocol: as §4
# as §3, with “plate. The fractional inhibition concentration (FIC) which was used to define synergy was calculated as set forth in Example 1.” for “plate.”
# S. aureus LMG3307 = experiment: as above
# Protocol: as §4
# as §3, with “plate. The fractional inhibition concentration (FIC) which was used to define synergy was calculated as set forth in Example 1.” for “plate.”
# S. aureus LMG3322 = experiment: as above
# Protocol: as §4
# as §3, with “plate. The fractional inhibition concentration (FIC) which was used to define synergy was calculated as set forth in Example 1.” for “plate.”
# S. aureus LMG3026 = experiment: as above
# Protocol: as §4
# as §3, with “plate. The fractional inhibition concentration (FIC) which was used to define synergy was calculated as set forth in Example 1.” for “plate.”
# S. aureus LMG3255 = experiment: as above
# Protocol: as §4
# as §3, with “plate. The fractional inhibition concentration (FIC) which was used to define synergy was calculated as set forth in Example 1.” for “plate.”
# [2] = Staphylococcus aureus, read-out: MIC50
# [3] = garvicin KS + micrococcin P1 + penicillin G
# [4] = triple combination PenG, GarKS and MP1
molecule,measurement,setting,value
CC1(C)S[C@@H]2[C@H](NC(=O)Cc3ccccc3)C(=O)N2[C@H]1C(=O)O [Penicillin G],MIC50,S. aureus Newman; [2],< 7.8 µg/mL
same,MIC50 of the component in combination,S. aureus Newman; [3],<7.8 µg/mL
same,MIC50 of the component in combination,S. aureus Newman; garvicin KS + penicillin G,<7.8 µg/mL
same,MIC50,"S. aureus USA 300; Staphylococcus aureus, USA300, individual component, read-out: MIC50",> 1000 µg/mL
same,MIC50 of the component in combination,S. aureus USA 300; [3],63 µg/mL
same,MIC50 of the component in combination,S. aureus USA 300; garvicin KS + penicillin G,250 µg/mL
same,MIC50,"S. aureus ATTC 10832; Staphylococcus aureus, ATTC10832, individual component, read-out: MIC50",< 7.8 µg/mL
same,MIC50 of the component in combination,S. aureus ATTC 10832; [3],<7.8 µg/mL
same,MIC50 of the component in combination,S. aureus ATTC 10832; garvicin KS + penicillin G,<7.8 µg/mL
same,MIC50,"S. aureus ATTC 33591; Staphylococcus aureus, ATTC33591, individual component, read-out: MIC50",> 1000 µg/mL
same,MIC50 of the component in combination,S. aureus ATTC 33591; [3],130 µg/mL
same,MIC50 of the component in combination,S. aureus ATTC 33591; garvicin KS + penicillin G,500 µg/mL
same,MIC50,"S. aureus ATTC 29213; Staphylococcus aureus, ATTC29213, individual component, read-out: MIC50",130 µg/mL
same,MIC50 of the component in combination,S. aureus ATTC 29213; [3],31 µg/mL
same,MIC50 of the component in combination,S. aureus ATTC 29213; garvicin KS + penicillin G,130 µg/mL
same,MIC50,S.a. 3255; [2],< 7.8 µg/mL
same,MIC50 of the component in combination,S.a. 3255; [3],<0.0078 mg/mL
same,MIC50 of the component in combination,S.a. 3255; garvicin KS + penicillin G,<0.0078 mg/mL
same,MIC of GarKS in comb. antibiotic/GarKS/MP1,[1]; All three strains,4 µg/mL
same,MIC of MP1 in comb. antibiotic/GarKS/MP1,[1]; All three strains,0.08 µg/mL
same,MIC of MP1 in comb. with the labelled antibiotic,[1]; All three strains,0.16 to 0.3 µg/mL
same,MIC of the antibiotic in comb. with GarKS and MP1,[1]; All three strains,8 µg/mL
same,MIC of the antibiotic in comb. with MP1,[1]; All three strains,16 to 32 µg/mL
same,MIC of the antimicrobial in comb. with GarKS,[1]; All three strains,16 µg/mL
same,MIC of the component when combined,[1]; GarKS with Amp or PenG,16 µg/mL
same,MIC of the component when combined,[1]; MP1 with PenG,16 to 32 µg/mL
same,reduction of MIC when combined,[1]; MP1 with PenG,80-150 times
same,MIC,"[1]; Staphylococcus aureus, 24 h, All three strains, read-out: MIC, single antimicrobial",> 2500 µg/mL
same,synergy with GarKS,[1]; checkerboard assay,moderate synergy
same,MIC of the component when combined,[1]; [4],8 µg/mL
same,reduction of MIC when combined,[1]; [4],more than 300 times
same,MIC,"S. aureus LMG3328; Staphylococcus aureus, LMG3328, 24 h, read-out: MIC, single component",< 0.24 µg/mL
same,MIC,"S. aureus LMG3265; Staphylococcus aureus, LMG3265, 24 h, read-out: MIC, single component",125 µg/mL
same,MIC,"S. aureus LMG3258; Staphylococcus aureus, LMG3258, 24 h, read-out: MIC, single component",64 µg/mL
same,MIC,"S. aureus LMG3271; Staphylococcus aureus, LMG3271, 24 h, read-out: MIC, single component",< 0.24 µg/mL
same,MIC,"S. aureus LMG3307; Staphylococcus aureus, LMG3307, 24 h, read-out: MIC, single component",< 0.24 µg/mL
same,MIC,"S. aureus LMG3322; Staphylococcus aureus, LMG3322, 24 h, read-out: MIC, single component",< 0.24 µg/mL
same,MIC,"S. aureus LMG3026; Staphylococcus aureus, LMG3026, 24 h, read-out: MIC, single component",> 2500 µg/mL
same,MIC,"S. aureus LMG3255; Staphylococcus aureus, LMG3255, 24 h, read-out: MIC, single component",< 0.24 µg/mL
B1,MIC50 of the component in combination,S. aureus Newman; garvicin KS + micrococcin P1,3.13 µg/mL
same,MIC50 of the component in combination,S. aureus Newman; [3],<0.78 µg/mL
same,MIC50 of the component in combination,S. aureus Newman; garvicin KS + penicillin G,<0.78 µg/mL
same,MIC50,S. aureus Newman,25 µg/mL
same,MIC50 of the component in combination,S. aureus USA 300; garvicin KS + micrococcin P1,1.56 µg/mL
same,MIC50 of the component in combination,S. aureus USA 300; [3],6.3 µg/mL
same,MIC50 of the component in combination,S. aureus USA 300; garvicin KS + penicillin G,25 µg/mL
same,MIC50,S. aureus USA 300; individual component,25 µg/mL
same,MIC50 of the component in combination,S. aureus ATTC 10832; garvicin KS + micrococcin P1,6.3 µg/mL
same,MIC50 of the component in combination,S. aureus ATTC 10832; [3],<0.78 µg/mL
same,MIC50 of the component in combination,S. aureus ATTC 10832; garvicin KS + penicillin G,<0.78 µg/mL
same,MIC50,S. aureus ATTC 10832; individual component,25 µg/mL
same,MIC50 of the component in combination,S. aureus ATTC 33591; garvicin KS + micrococcin P1,13 µg/mL
same,MIC50 of the component in combination,S. aureus ATTC 33591; [3],13 µg/mL
same,MIC50 of the component in combination,S. aureus ATTC 33591; garvicin KS + penicillin G,50 µg/mL
same,MIC50,S. aureus ATTC 33591; individual component,50 µg/mL
same,MIC50 of the component in combination,S. aureus ATTC 29213; garvicin KS + micrococcin P1,13 µg/mL
same,MIC50 of the component in combination,S. aureus ATTC 29213; [3],3.1 µg/mL
same,MIC50 of the component in combination,S. aureus ATTC 29213; garvicin KS + penicillin G,13 µg/mL
same,MIC50,S. aureus ATTC 29213; individual component,25 µg/mL
same,MIC50 of the component in combination,S.a. 3255; garvicin KS + micrococcin P1,0.013 mg/mL
same,MIC50 of the component in combination,S.a. 3255; [3],<7.8 × 10^−4. mg/ml
same,MIC50 of the component in combination,S.a. 3255; garvicin KS + penicillin G,<0.00078 mg/mL
same,MIC50,S.a. 3255,25 µg/mL
same,reduction of MIC when combined,[1]; GarKS with Amp or PenG,4 times
same,MIC of the component when GarKS and MP1 are combined,[1]; checkerboard assay,8 µg/mL
same,MIC of the component when combined,[1]; [4],4 µg/mL
same,reduction of MIC when combined,[1]; [4],about 8 times
same,"MIC, single component",S. aureus LMG3328; LMG3328,32 µg/mL
same,"MIC, single component",S. aureus LMG3265; LMG3265,16 µg/mL
same,"MIC, single component",S. aureus LMG3258; LMG3258,32 µg/mL
same,"MIC, single component",S. aureus LMG3271; LMG3271,32 µg/mL
same,"MIC, single component",S. aureus LMG3307; LMG3307,32 µg/mL
same,"MIC, single component",S. aureus LMG3322; LMG3322,16 µg/mL
same,"MIC, single component",S. aureus LMG3026; LMG3026,16 µg/mL
same,"MIC, single component",S. aureus LMG3255; LMG3255,32 µg/mL
